# Source: US11236129B2, “IL-17A binding peptides and medical uses thereof” (Dompe' Farmaceutici S.P.A., priority 2018, dated 2022)
# Residues, ends and D or L forms follow the SMILES beside them.
# Molecular target: IL-17RA/IL17RC dimerization induced by IL-17A (Homo sapiens, UniProt Q16552)
# Experiment: IL-17RA/IL17RC dimerization assay in response to IL-17A (PathHunter Cytokine Receptor Assay)
# Type: cell-based
# Conditions: IL-17A at EC80; read-out: IC50 in IL-17RA/IL7RC dimerization assay
# Procedure, shortened: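 PathHunter cells with IL-17RA and IL-17RC tagged for β-galactosidase complementation were preincubated 60 min with peptide (1% vehicle). IL-17A was then added at EC80 for 6–16 h at 37 °C, and chemiluminescence was read. Inhibition is relative to the EC80 and vehicle controls.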
# IL-17RA/IL17RC dimerization induced by IL-17A, sequence (Q16552 24-155): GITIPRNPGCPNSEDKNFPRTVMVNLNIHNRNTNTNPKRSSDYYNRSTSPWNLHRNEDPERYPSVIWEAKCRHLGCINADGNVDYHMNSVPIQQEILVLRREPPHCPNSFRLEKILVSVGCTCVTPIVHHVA
row,IC50,SMILES
1,< 10 µM,CC[C@H](C)[C@H](NC(C)=O)C(=O)N[C@@H](Cc1c[nH]cn1)C(=O)N[C@H](C(=O)N[C@H](C(=O)N[C@H](C(=O)N1CCC[C@H]1C(=O)N[C@@H](C)C(=O)N[C@@H](CC(=O)O)C(=O)N[C@@H](CC(C)C)C(=O)N[C@@H](Cc1c[nH]c2ccccc12)C(=O)N[C@@H](CC(=O)O)C(=O)N[C@@H](Cc1c[nH]c2ccccc12)C(=O)N[C@H](C(=O)N[C@@H](CC(N)=O)C(=O)N[C@@H](Cc1c[nH]cn1)C(N)=O)[C@@H](C)CC)[C@@H](C)CC)[C@@H](C)O)C(C)C [SEQ ID NO: 222] (Ac-IHVTIPADLWDWINH-NH2)
2,< 10 µM,CC[C@H](C)[C@H](NC(C)=O)C(=O)N[C@@H](Cc1c[nH]cn1)C(=O)N[C@H](C(=O)N[C@@H](CCC(N)=O)C(=O)N[C@H](C(=O)N1CCC[C@H]1C(=O)N[C@@H](C)C(=O)N[C@@H](CC(=O)O)C(=O)N[C@@H](CC(C)C)C(=O)N[C@@H](Cc1c[nH]c2ccccc12)C(=O)N[C@@H](CC(=O)O)C(=O)N[C@@H](Cc1c[nH]c2ccccc12)C(=O)N[C@H](C(=O)N[C@@H](CC(N)=O)C(=O)N[C@@H](CCCCN)C(N)=O)[C@@H](C)CC)[C@@H](C)CC)C(C)C [SEQ ID NO: 178] (Ac-IHVQIPADLWDWINK-NH2)
3,< 10 µM,CC(=O)N[C@H](C(=O)N[C@@H](Cc1c[nH]cn1)C(=O)N[C@H](C(=O)N[C@@H](CO)C(=O)N[C@H](C(=O)N1CCC[C@H]1C(=O)N[C@@H](CCC(N)=O)C(=O)N[C@@H](CCC(=O)O)C(=O)N[C@@H](CC(C)C)C(=O)N[C@@H](Cc1ccc(O)cc1)C(=O)N[C@@H](CCC(=O)O)C(=O)N[C@@H](Cc1c[nH]c2ccccc12)C(=O)N[C@H](C(=O)N[C@@H](CCCNC(=N)N)C(=O)N[C@@H](CCCNC(=N)N)C(N)=O)C(C)C)C(C)C)C(C)C)C(C)C [SEQ ID NO: 232] (Ac-VHVSVPQELYEWVRR-NH2)
4,< 10 µM,CC(=O)N[C@H](C(=O)N[C@@H](Cc1c[nH]cn1)C(=O)N[C@H](C(=O)N[C@H](C(=O)N[C@H](C(=O)N1CCC[C@H]1C(=O)N[C@@H](CCC(N)=O)C(=O)N[C@@H](CCC(=O)O)C(=O)N[C@@H](CC(C)C)C(=O)N[C@@H](Cc1c[nH]c2ccccc12)C(=O)N[C@@H](CCC(=O)O)C(=O)N[C@@H](Cc1c[nH]c2ccccc12)C(=O)N[C@H](C(=O)N[C@@H](CCC(=O)O)C(=O)N[C@@H](CCC(=O)O)C(N)=O)C(C)C)C(C)C)[C@@H](C)O)C(C)C)C(C)C [SEQ ID NO: 227] (Ac-VHVTVPQELWEWVEE-NH2)
5,< 10 µM,CC[C@H](C)[C@H](NC(=O)[C@H](CO)NC(=O)[C@@H](NC(=O)[C@H](Cc1c[nH]cn1)NC(=O)[C@@H](NC(C)=O)C(C)C)C(C)C)C(=O)N1CCC[C@H]1C(=O)N[C@@H](CCC(N)=O)C(=O)N[C@@H](CCC(=O)O)C(=O)N[C@@H](CC(C)C)C(=O)N[C@@H](Cc1c[nH]c2ccccc12)C(=O)N[C@@H](CCC(=O)O)C(=O)N[C@@H](Cc1c[nH]c2ccccc12)C(=O)N[C@H](C(=O)N[C@@H](CCCNC(=N)N)C(=O)N[C@@H](CCCNC(=N)N)C(N)=O)C(C)C [SEQ ID NO: 230] (Ac-VHVSIPQELWEWVRR-NH2)
6,< 10 µM,CC[C@H](C)[C@H](NC(C)=O)C(=O)N[C@@H](CCCCN)C(=O)N[C@H](C(=O)N[C@H](C(=O)N[C@H](C(=O)N1CCC[C@H]1C(=O)N[C@@H](C)C(=O)N[C@@H](CC(=O)O)C(=O)N[C@@H](CC(C)C)C(=O)N[C@@H](Cc1c[nH]c2ccccc12)C(=O)N[C@@H](CC(=O)O)C(=O)N[C@@H](Cc1c[nH]c2ccccc12)C(=O)N[C@H](C(=O)N[C@@H](CC(N)=O)C(=O)N[C@@H](CCCCN)C(N)=O)[C@@H](C)CC)[C@@H](C)CC)[C@@H](C)O)C(C)C [SEQ ID NO: 163] (Ac-IKVTIPADLWDWINK-NH2)
7,< 10 µM,CC[C@H](C)[C@H](NC(C)=O)C(=O)N[C@@H](Cc1c[nH]cn1)C(=O)N[C@H](C(=O)N[C@H](C(=O)N[C@H](C(=O)N1CCC[C@H]1C(=O)N[C@@H](C)C(=O)N[C@@H](CC(=O)O)C(=O)N[C@@H](CC(C)C)C(=O)N[C@@H](Cc1c[nH]c2ccccc12)C(=O)N[C@@H](CC(=O)O)C(=O)N[C@@H](Cc1c[nH]c2ccccc12)C(=O)N[C@H](C(=O)N[C@@H](CC(N)=O)C(=O)N[C@@H](CCCCN)C(N)=O)[C@@H](C)CC)C(C)C)[C@@H](C)O)C(C)C [SEQ ID NO: 183] (Ac-IHVTVPADLWDWINK-NH2)
8,< 0.5 µM,CC[C@H](C)[C@H](NC(=O)[C@@H](NC(=O)[C@@H](NC(=O)[C@H](Cc1c[nH]cn1)NC(=O)[C@@H](NC(=O)CNC(=O)[C@H](C)NC(=O)CNC(=O)[C@@H]1CCCN1C(=O)[C@@H](NC(=O)CNC(=O)[C@H](C)NC(=O)CNC(=O)[C@@H]1CCCN1C(=O)[C@@H](NC(C)=O)C(C)C)C(C)C)[C@@H](C)CC)C(C)C)[C@@H](C)O)C(N)=O [SEQ ID NO: 156] (Ac-VPGAGVPGAGIHVTI-NH2)
9,< 0.5 µM,CC(=O)N[C@H](C(=O)N[C@@H](Cc1c[nH]cn1)C(=O)N[C@@H](Cc1ccccc1)C(=O)N[C@H](C(=O)N[C@@H](Cc1ccccc1)C(=O)N1CCC[C@H]1C(=O)N[C@@H](CCC(N)=O)C(=O)N[C@@H](CC(=O)O)C(=O)N[C@@H](CC(C)C)C(=O)N[C@@H](Cc1c[nH]c2ccccc12)C(=O)N[C@@H](CCC(=O)O)C(=O)N[C@@H](Cc1ccccc1)C(=O)N[C@H](C(=O)N[C@@H](CCCNC(=N)N)C(=O)N[C@@H](CCCNC(=N)N)C(N)=O)C(C)C)[C@@H](C)O)C(C)C [SEQ ID NO: 128] (Ac-VHFTFPQDLWEFVRR-NH2)
10,< 0.5 µM,CC(=O)N[C@H](C(=O)N[C@@H](Cc1c[nH]cn1)C(=O)N[C@@H](Cc1ccccc1)C(=O)N[C@@H](CCC(N)=O)C(=O)N[C@@H](Cc1ccccc1)C(=O)N1CCC[C@H]1C(=O)N[C@@H](CCC(N)=O)C(=O)N[C@@H](CC(=O)O)C(=O)N[C@@H](Cc1c[nH]c2ccccc12)C(=O)N[C@@H](Cc1c[nH]c2ccccc12)C(=O)N[C@@H](CCC(=O)O)C(=O)N[C@@H](Cc1c[nH]c2ccccc12)C(=O)N[C@H](C(=O)N[C@@H](CCCNC(=N)N)C(=O)N[C@@H](CCCNC(=N)N)C(N)=O)C(C)C)C(C)C [SEQ ID NO: 136] (Ac-VHFQFPQDWWEWVRR-NH2)
11,< 10 µM,CC[C@H](C)[C@H](NC(=O)[C@@H](NC(=O)[C@@H](NC(=O)[C@H](CCCNC(=N)N)NC(=O)[C@@H](NC(C)=O)C(C)C)C(C)C)[C@@H](C)O)C(=O)N1CCC[C@H]1C(=O)N[C@@H](CCC(N)=O)C(=O)N[C@@H](CCC(=O)O)C(=O)N[C@@H](CC(C)C)C(=O)N[C@@H](Cc1c[nH]c2ccccc12)C(=O)N[C@@H](CCC(=O)O)C(=O)N[C@@H](Cc1c[nH]c2ccccc12)C(=O)N[C@H](C(=O)N[C@@H](CCCNC(=N)N)C(=O)N[C@@H](CCCNC(=N)N)C(N)=O)C(C)C [SEQ ID NO: 233] (Ac-VRVTIPQELWEWVRR-NH2)
12,< 10 µM,CC[C@H](C)[C@H](NC(=O)[C@H](CCC(=O)O)NC(=O)[C@H](CC(C)C)NC(=O)[C@@H]1CCCN1C(=O)[C@@H](NC(=O)[C@H](CO)NC(=O)[C@@H](NC(=O)[C@H](CCCCN)NC(=O)[C@@H](NC(C)=O)C(C)C)[C@@H](C)CC)C(C)C)C(=O)N[C@@H](Cc1ccccc1)C(=O)N[C@@H](CCC(=O)O)C(=O)N[C@@H](Cc1c[nH]c2ccccc12)C(=O)N[C@@H](CC(C)C)C(=O)N[C@@H](CCC(N)=O)C(=O)N[C@@H](Cc1c[nH]cn1)C(N)=O [SEQ ID NO: 254] (Ac-VKISVPLEIFEWLQH-NH2)
